Reference: patent US9586951B2 (FUJIFILM Corporation, priority 2013, dated 2017)

What was measured:
ATM = target: T1, ATM (Homo sapiens, UniProt Q13315); experiment: ATM inhibition test (phosphorylation of Chk2 generated by ionizing radiation, AlphaScreen SureFire); format: cell-based; settings: phosphorylated Chk2 in NCI-H460 cells, ionizing radiation 8Gy, 1 hour after test compound treatment; read-out: ATM inhibitory activity
T1 construct: detecting phosphorylation of Chk2 in a human non-small cell lung cancer cell line NCI-H460 (ATCC company); host or cells: NCI-H460 human non-small cell lung cancer cells
Outline: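 NCI-H460 cells treated with compound for 1 hour, then irradiated with 8Gy and incubated 1 hour at 37° C. Phospho-Chk2 measured by AlphaScreen SureFire. Inhibition ratio calculated relative to untreated irradiated and non-irradiated wells.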

[1] = tested on: human non-small cell lung cancer cell line NCI-H460; experiment: Cell proliferation inhibition test by sensitivity-enhancing to ionizing radiation (Cell Titer Glo); format: cell-based; settings: concentration in which SER became 2, NCI-H460 cells, ionizing radiation 2 Gy, cultured 120 hour
Outline: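 Cells seeded at 2×10^3 cells/mL in RPMI-1640 with 10% FBS; after 24 h, compound added (0.1% DMSO), and 30 min later half the plates irradiated at 2 Gy. After 120 hour at 37° C, viability by Cell Titer Glo luminescence; SER2 is the concentration giving SER of 2 by sigmoidal fit.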

T1 sequence (Q13315 whole entry): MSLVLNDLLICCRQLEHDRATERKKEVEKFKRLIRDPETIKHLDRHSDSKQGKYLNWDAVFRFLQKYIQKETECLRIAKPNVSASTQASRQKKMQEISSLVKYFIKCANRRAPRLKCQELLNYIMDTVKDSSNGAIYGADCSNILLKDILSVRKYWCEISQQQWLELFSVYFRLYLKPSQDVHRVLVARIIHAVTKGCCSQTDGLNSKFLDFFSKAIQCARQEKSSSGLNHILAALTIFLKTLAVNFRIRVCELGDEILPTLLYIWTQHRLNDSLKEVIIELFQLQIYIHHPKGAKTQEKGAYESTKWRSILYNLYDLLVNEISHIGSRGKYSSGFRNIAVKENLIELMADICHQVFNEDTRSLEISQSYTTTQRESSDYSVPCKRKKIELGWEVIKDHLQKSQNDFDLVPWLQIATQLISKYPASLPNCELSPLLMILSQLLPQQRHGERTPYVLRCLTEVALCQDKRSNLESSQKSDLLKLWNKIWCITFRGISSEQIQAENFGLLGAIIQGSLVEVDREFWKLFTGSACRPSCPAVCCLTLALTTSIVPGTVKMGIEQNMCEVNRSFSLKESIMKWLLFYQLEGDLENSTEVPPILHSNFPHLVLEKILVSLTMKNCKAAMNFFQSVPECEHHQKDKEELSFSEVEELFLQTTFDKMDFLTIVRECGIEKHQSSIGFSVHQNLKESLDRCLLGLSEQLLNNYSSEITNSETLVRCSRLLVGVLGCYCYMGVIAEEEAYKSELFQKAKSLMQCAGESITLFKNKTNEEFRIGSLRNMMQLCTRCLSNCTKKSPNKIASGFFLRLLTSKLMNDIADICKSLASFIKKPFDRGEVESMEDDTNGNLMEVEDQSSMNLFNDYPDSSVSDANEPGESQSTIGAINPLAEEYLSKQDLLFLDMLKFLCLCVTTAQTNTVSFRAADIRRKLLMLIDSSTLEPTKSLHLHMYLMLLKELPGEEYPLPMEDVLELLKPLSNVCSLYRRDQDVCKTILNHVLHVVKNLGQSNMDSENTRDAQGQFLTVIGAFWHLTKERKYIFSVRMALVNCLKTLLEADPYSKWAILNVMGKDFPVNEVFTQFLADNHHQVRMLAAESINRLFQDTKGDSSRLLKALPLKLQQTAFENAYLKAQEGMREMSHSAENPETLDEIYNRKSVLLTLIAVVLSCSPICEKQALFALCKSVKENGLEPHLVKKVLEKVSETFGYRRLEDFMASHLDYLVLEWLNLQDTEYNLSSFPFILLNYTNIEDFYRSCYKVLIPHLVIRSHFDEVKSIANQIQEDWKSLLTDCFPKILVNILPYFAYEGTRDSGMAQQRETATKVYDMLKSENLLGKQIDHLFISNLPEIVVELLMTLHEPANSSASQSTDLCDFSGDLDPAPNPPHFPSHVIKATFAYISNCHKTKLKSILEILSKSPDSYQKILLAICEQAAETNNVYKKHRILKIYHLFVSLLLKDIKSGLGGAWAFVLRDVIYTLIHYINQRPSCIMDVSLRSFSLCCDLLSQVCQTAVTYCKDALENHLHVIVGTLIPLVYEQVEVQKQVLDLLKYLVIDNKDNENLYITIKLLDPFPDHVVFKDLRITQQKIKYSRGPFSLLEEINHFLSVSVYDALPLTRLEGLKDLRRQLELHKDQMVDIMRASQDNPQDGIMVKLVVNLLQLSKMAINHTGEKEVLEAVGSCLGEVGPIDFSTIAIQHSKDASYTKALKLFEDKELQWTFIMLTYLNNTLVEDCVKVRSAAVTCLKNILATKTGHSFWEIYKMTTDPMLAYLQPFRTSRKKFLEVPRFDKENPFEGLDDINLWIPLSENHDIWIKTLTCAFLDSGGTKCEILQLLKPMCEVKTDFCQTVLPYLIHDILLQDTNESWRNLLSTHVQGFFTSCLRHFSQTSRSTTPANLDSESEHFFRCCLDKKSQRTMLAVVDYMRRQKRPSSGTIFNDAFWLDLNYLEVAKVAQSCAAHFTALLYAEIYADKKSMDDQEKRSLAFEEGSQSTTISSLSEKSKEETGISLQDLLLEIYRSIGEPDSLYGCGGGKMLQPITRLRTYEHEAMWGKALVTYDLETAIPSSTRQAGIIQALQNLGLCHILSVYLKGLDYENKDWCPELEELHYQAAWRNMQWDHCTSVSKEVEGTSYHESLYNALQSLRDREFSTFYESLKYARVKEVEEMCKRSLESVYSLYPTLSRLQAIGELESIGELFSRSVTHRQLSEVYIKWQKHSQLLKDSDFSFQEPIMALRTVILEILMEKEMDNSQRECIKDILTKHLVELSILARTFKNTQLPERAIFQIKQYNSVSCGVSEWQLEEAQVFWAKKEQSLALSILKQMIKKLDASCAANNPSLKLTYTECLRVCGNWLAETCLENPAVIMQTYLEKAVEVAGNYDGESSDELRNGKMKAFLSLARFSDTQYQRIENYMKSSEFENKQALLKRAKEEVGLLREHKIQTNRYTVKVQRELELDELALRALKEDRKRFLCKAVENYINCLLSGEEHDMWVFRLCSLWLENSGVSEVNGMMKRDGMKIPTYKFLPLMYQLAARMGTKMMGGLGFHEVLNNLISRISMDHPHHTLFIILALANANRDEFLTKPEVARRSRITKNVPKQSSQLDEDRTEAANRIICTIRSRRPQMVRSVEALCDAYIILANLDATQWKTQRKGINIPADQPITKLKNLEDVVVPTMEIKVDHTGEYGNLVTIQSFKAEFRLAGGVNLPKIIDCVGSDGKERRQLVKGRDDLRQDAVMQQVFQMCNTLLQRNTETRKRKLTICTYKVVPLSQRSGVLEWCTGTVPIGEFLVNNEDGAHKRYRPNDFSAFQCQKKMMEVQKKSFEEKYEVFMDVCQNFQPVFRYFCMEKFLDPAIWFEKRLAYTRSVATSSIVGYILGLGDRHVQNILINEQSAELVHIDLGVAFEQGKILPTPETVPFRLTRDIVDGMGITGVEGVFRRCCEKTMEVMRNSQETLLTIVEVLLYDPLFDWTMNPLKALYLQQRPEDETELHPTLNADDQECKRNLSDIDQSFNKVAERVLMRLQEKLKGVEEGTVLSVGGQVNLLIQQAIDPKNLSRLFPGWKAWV

Row | SMILES | IC50 (ATM) [nM] | SER2 (concentration at which the radiation sensitivity-enhancement ratio reaches 2) ([1]; Homo sapiens, NCI-H460, 120 h) [nM] | SER2 (concentration at which the radiation sensitivity-enhancement ratio reaches 2) ([1]; Homo sapiens) [nM] | SER2 (concentration at which the radiation sensitivity-enhancement ratio reaches 2) [1] [nM]
1 | CC1CN(CCNc2ccc3c(c2)Sc2cccc(-c4cc(N5CCOCC5)cc(=O)[nH]4)c2S3)CCO1 (centres unmarked) [Example 1-16-6, 6-(7-((2-(2-Methylmorpholino)ethyl)amino)thianthren-1-yl)-4-morpholinopyridin-2(1H)-one] | < 100 | – | 100 to 500 | –
2 | COC[C@H](CN1CCOC[C@H]1C)Nc1ccc2c(c1)Sc1cccc(-c3cc(N4CCOCC4)cc(=O)[nH]3)c1S2 [Example 1-46-4, 6-(7-(((S)-1-Methoxy-3-((R)-3-methylmorpholino)propan-2-yl)amino)thianthren-1-yl)-4-morpholino pyridin-2(1H)-one] | < 100 | 100 to 500 | – | –
3 | CC(CN1CCN(c2ccccc2)CC1)Nc1ccc2c(c1)Sc1cccc(-c3cc(N4CCOCC4)cc(=O)[nH]3)c1S2 (centres unmarked) [Example 1-13-15, 4-Morpholino-6-(7-((1-(4-phenylpiperazin-1-yl)propan-2-yl)amino)thianthren-1-yl)pyridin-2 (1H)-one] | < 100 | 100 to 500 | – | –
4 | COc1cnc(C(C)Nc2ccc3c(c2)Cc2cccc(-c4cc(N5CCOCC5)cc(=O)[nH]4)c2O3)cn1 (centres unmarked) [Example 2-14-51, 6-(7-((1-(5-Methoxypyrazin-2-yl)ethyl)amino)-9H-xanthen-4-yl)-4-morpholino pyridin-2(1H)-one] | < 100 | 100 to 500 | – | –
5 | Cc1cccc(C(Nc2ccc3c(c2)Sc2cccc(-c4cc(N5CCOCC5)cc(=O)[nH]4)c2S3)C2CCCN(C)C2)n1 (single isomer, unassigned) [Example 1-22-5, 6-(7-(((1-Methylpiperidin-3-yl)(6-methylpyridin-2-yl)methyl)amino)thianthren-1-yl)-4-morpholino pyridin-2 (1H)-one] | < 100 | – | – | 100 to 500
6 | C[C@@H]1CN(CCNc2ccc3c(c2)Sc2cccc(-c4cc(N5CCOCC5)cc(=O)[nH]4)c2S3)C[C@H](C)O1 [Example 1-10-14, 6-(7-((2-((2S,6R)-2,6- Dimethylmorpholino)ethyl)amino)thianthren-1-yl)-4-morpholino pyridin-2(1H)-one] | < 100 | 100 to 500 | – | –
7 | CC(CNc1ccc2c(c1)Sc1cccc(-c3cc(N4CCOCC4)cc(=O)[nH]3)c1S2)N1CCOCC1 (racemic) [Example 1-9-2-1, 4-Morpholino-6-(7-((2-morpholinopropyl)amino)thianthren-1-yl)pyridin-2(1H)-one] | < 100 | 100 to 500 | – | –
8 | O=c1cc(N2CCOCC2)cc(-c2cccc3c2Sc2ccc(NC(CF)CN4CCOCC4)cc2S3)[nH]1 (racemic) [Example 1-41-1-1, 6-(7-((1-Fluoro-3-morpholinopropan-2-yl)amino)thianthren-1-yl)-4-morpholinopyridin-2(1H)-one] | < 100 | – | < 100 | –
9 | COCC(CN1CCOCC1)Nc1ccc2c(c1)Sc1cccc(-c3cc(N4CCOCC4)cc(=O)[nH]3)c1S2 (single isomer, unassigned) [Example 1-17-1-2, 6-(7-((1-methoxy-3-morpholinopropan-2-yl)amino)thianthren-1-yl)-4-morpholinopyridin-2(1H)-one] | < 100 | < 100 | – | –
10 | CCC(Nc1ccc2c(c1)Cc1cccc(-c3cc(N4CCOCC4)cc(=O)[nH]3)c1O2)c1cncc(OC)c1 (centres unmarked) [Example 2-14-16, 6-(7-((1-(5-Methoxypyridin-3-yl)propyl)amino)-9H-xanthen-4-yl)-4-morpholino pyridin-2 (1H)-one] | < 100 | < 100 | – | –

Further lines, with some results ahead:

Row | IC50 (ATM) [nM] | SMILES | SER2 (concentration at which the radiation sensitivity-enhancement ratio reaches 2) ([1]; Homo sapiens, NCI-H460, 120 h) [nM] | SER2 (concentration at which the radiation sensitivity-enhancement ratio reaches 2) ([1]; Homo sapiens) [nM] | SER2 (concentration at which the radiation sensitivity-enhancement ratio reaches 2) [1] [nM]
11 | < 100 | Cc1cnc(C(C)Nc2ccc3c(c2)Cc2cccc(-c4cc(N5CCOCC5)cc(=O)[nH]4)c2O3)cn1 (single isomer, unassigned) [Example 2-14-90-2, 6-(7-((1-(5-methylpyrazin-2-yl)ethyl)amino)-9H-xanthen-4-yl)-4-morpholinopyridin-2(1H)-one] | < 100 | – | –
12 | < 100 | CN(C)c1cncc(CNc2ccc3c(c2)Cc2cccc(-c4cc(N5CCOCC5)cc(=O)[nH]4)c2O3)c1 [Example 2-21-7, 6-(7-(((5-(Dimethylamino)pyridin-3-yl)methyl)amino)-9H-xanthen-4-yl)-4-morpholino pyridin-2(1H)-one] | 500 to 2000 | – | –
13 | 100 to 500 | O=c1cc(N2CCOCC2)cc(-c2cccc3c2Oc2ccc(NCc4ccc(Cl)nc4)cc2C3)[nH]1 [Example 2-2-3] | 100 to 500 | – | –
14 | < 100 | COc1ccnc(C(C)Nc2ccc3c(c2)Cc2cccc(-c4cc(N5CCOCC5)cc(=O)[nH]4)c2O3)c1 (centres unmarked) [Example 2-14-20, 6-(7-((1-(4-Methoxypyridin-2-yl)ethyl)amino)-9H-xanthen-4-yl)-4-morpholino pyridin-2(1H)-one] | < 100 | – | –
15 | < 100 | Cc1cccc(C(CCN(C)C)Nc2ccc3c(c2)Sc2cccc(-c4cc(N5CCOCC5)cc(=O)[nH]4)c2S3)n1 (single isomer, unassigned) [Example 1-22-11-1, 6-(7-((3-(dimethylamino)-1-(6-methylpyridin-2-yl)propyl)amino)thianthren-1-yl)-4-morpholinopyridin-2(1H)-one] | 100 to 500 | – | –
16 | < 100 | O=c1cc(N2CCOCC2)cc(-c2c(F)ccc3c2Oc2ccc(NCc4cncc(Cl)c4)cc2C3)[nH]1 [Example 2-46-2, 6-(7-(((5-Chloropyridin-3-yl)methyl)amino)-3-fluoro-9H-xanthen-4-yl)-4-morpholinopyridin-2(1H)-one] | 100 to 500 | – | –
17 | < 100 | COc1cccc(CNc2ccc3c(c2)Sc2cccc(-c4cc(N5CCOCC5)cc(=O)[nH]4)c2O3)n1 [Example 4-8-18, 6-(8-(((6-Methoxypyridin-2-yl)methyl)amino)phenoxathiin-4-yl)-4-morpholino pyridin-2 (1H)-one] | 100 to 500 | – | –
18 | < 100 | O=c1cc(N2CCOCC2)cc(-c2cccc3c2Sc2ccc(NCc4cc(Cl)ccn4)cc2S3)[nH]1 [Example 1-12-3, 6-(7-(((4-Chloropyridin-2-yl)methyl)amino)thianthren-1-yl)-4-morpholino pyridin-2 (1H)-one] | 100 to 500 | – | –
19 | < 100 | Cc1cccc(C(CN(C)C)Nc2ccc3c(c2)Sc2cccc(-c4cc(N5CCOCC5)cc(=O)[nH]4)c2S3)n1 (centres unmarked) [Example 1-22-3, 6-(7-((2-(Dimethylamino)-1-(6-methylpyridin-2-yl)ethyl)amino)thianthren-1-yl)-4-morpholino pyridin-2 (1H)-one] | < 100 | – | –
20 | < 100 | Cc1cccc(C(CCN(C)C)Nc2ccc3c(c2)Sc2cccc(-c4cc(N5CCOCC5)cc(=O)[nH]4)c2S3)n1 (centres unmarked) [Example 1-22-1, 6-(7-((3-(dimethylamino)-1-(6-methylpyridin-2-yl)propyl)amino)thianthren-1-yl)-4-morpholinopyridin-2(1H)-one] | 100 to 500 | – | –
21 | < 100 | O=c1cc(N2CCOCC2)cc(-c2cccc3c2Oc2ccc(NCc4ccc(Cl)nc4)cc2S3)[nH]1 [Example 4-8-25, 6-(8-(((6-Chloropyridin-3-yl)methyl)amino)phenoxathiin-4-yl)-4-morpholino pyridin-2(1H)-one] | 100 to 500 | – | –
22 | < 100 | Cn1cc(-c2ccnc(CNc3ccc4c(c3)Cc3cccc(-c5cc(N6CCOCC6)cc(=O)[nH]5)c3O4)c2)cn1 [Example 2-2-74, 6-(7-(((4-(1-Methyl-1H-pyrazol-4-yl)pyridin-2-yl)methyl)amino)-9H-xanthen-4-yl)-4-morpholino pyridin-2(1H)-one] | 100 to 500 | – | –
23 | < 100 | Cc1ccnc(C(CO)Nc2ccc3c(c2)Sc2cccc(-c4cc(N5CCOCC5)cc(=O)[nH]4)c2S3)c1 (single isomer, unassigned) [Example 1-12-138-2, 6-(7-((2-hydroxy-1-(4-methylpyridin-2-yl)ethyl)amino)thianthren-1-yl)-4-morpholinopyridin-2(1H)-one] | < 100 | – | –
24 | < 100 | O=c1cc(N2CCOCC2)cc(-c2cccc3c2Oc2ccc(NCc4cccc(Cl)n4)cc2S3)[nH]1 [Example 4-4-20, 6-(8-(((6-Chloropyridin-2-yl)methyl)amino)phenoxathiin-4-yl)-4-morpholino pyridin-2(1H)-one] | 100 to 500 | – | –
25 | < 100 | CC(Nc1ccc2c(c1)Cc1cccc(-c3cc(N4CCOCC4)cc(=O)[nH]3)c1O2)c1nccc(C(F)F)n1 (stereo not drawn) [Example 2-14-62, 6-(7-((l-(4-(Difluoromethyl)pyrimidin-2-yl)ethyl)amino)-9H-xanthen-4-yl)-4-morpholino pyridin-2(1H)-one] | 100 to 500 | – | –
